Assay results as given in the supplement of paper PMC10307832.

Columns and labels:
Experiment in all cases: relative viability (nuclei count vs DMSO), 5 days (fraction); higher = more cells survive
BX 795 = compound: O=C(NCCCNc1nc(Nc2cccc(NC(=O)N3CCCC3)c2)ncc1I)c1cccs1 [BX 795]
Summary of the method: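 Five library-drug doses, separated by factors of √10, were pinned into 1536-well plates holding lung cancer cell lines after an overnight stay at 37 °C. Cells were fixed, permeabilised and Hoechst-stained in one step after 5 days without medium change, then imaged at 4×. Viability compares treated-well with vehicle-well nuclei, counted in MetaXpress, as a median across plates. Passing plates had control CV below 25% and at least one doubling.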

BX 795 + Luminespib = compound: O=C(NCCCNc1nc(Nc2cccc(NC(=O)N3CCCC3)c2)ncc1I)c1cccs1 [BX 795] + CCNC(=O)c1noc(-c2cc(C(C)C)c(O)cc2O)c1-c1ccc(CN2CCOCC2)cc1 [Luminespib] (partner 0.01 µM)
Summary of the method: (§1)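 Relative viability equals treated-well nuclei counts divided by vehicle-well nuclei counts. Counts came from 4× images of lung cancer cell lines grown in 1536-well plates for 5 days after pin-tool dosing on the day after seeding. Dosing used one drug alone or a fixed anchor-drug dose plus five library-drug doses (not always all listed) in √10 steps, and values are medians of duplicate plates.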

BX 795 + Foretinib = compound: O=C(NCCCNc1nc(Nc2cccc(NC(=O)N3CCCC3)c2)ncc1I)c1cccs1 [BX 795] + COc1cc2c(Oc3ccc(NC(=O)C4(C(=O)Nc5ccc(F)cc5)CC4)cc3F)ccnc2cc1OCCCN1CCOCC1 [Foretinib] (partner 0.25 µM)
Summary of the method: as §1

BX 795 + OSI-027 = compound: O=C(NCCCNc1nc(Nc2cccc(NC(=O)N3CCCC3)c2)ncc1I)c1cccs1 [BX 795] + COc1cccc2cc(-c3nc([C@H]4CC[C@H](C(=O)O)CC4)n4ncnc(N)c34)[nH]c12 [OSI-027] (partner 0.5 µM)
Summary of the method: as §1

BX 795 + Tozasertib = compound: O=C(NCCCNc1nc(Nc2cccc(NC(=O)N3CCCC3)c2)ncc1I)c1cccs1 [BX 795] + Cc1cc(Nc2cc(N3CCN(C)CC3)nc(Sc3ccc(NC(=O)C4CC4)cc3)n2)n[nH]1 [Tozasertib] (partner 0.1 µM)
Summary of the method: as §1

BX 795 + Dasatinib = compound: O=C(NCCCNc1nc(Nc2cccc(NC(=O)N3CCCC3)c2)ncc1I)c1cccs1 [BX 795] + Cc1nc(Nc2ncc(C(=O)Nc3c(C)cccc3Cl)s2)cc(N2CCN(CCO)CC2)n1 [Dasatinib] (partner 0.075 µM)
Summary of the method: as §1

BX 795 + Phenformin = compound: O=C(NCCCNc1nc(Nc2cccc(NC(=O)N3CCCC3)c2)ncc1I)c1cccs1 [BX 795] + N=C(N)NC(=N)NCCc1ccccc1 [Phenformin] (partner 250 µM)
Summary of the method: as §1

BX 795 + Bortezomib = compound: O=C(NCCCNc1nc(Nc2cccc(NC(=O)N3CCCC3)c2)ncc1I)c1cccs1 [BX 795] + CC(C)C[C@H](NC(=O)[C@H](Cc1ccccc1)NC(=O)c1cnccn1)B(O)O [Bortezomib] (partner 0.002 µM)
Summary of the method: as §1

BX 795 + Navitoclax = compound: O=C(NCCCNc1nc(Nc2cccc(NC(=O)N3CCCC3)c2)ncc1I)c1cccs1 [BX 795] + CC1(C)CCC(c2ccc(Cl)cc2)=C(CN2CCN(c3ccc(C(=O)NS(=O)(=O)c4ccc(N[C@H](CCN5CCOCC5)CSc5ccccc5)c(S(=O)(=O)C(F)(F)F)c4)cc3)CC2)C1 [Navitoclax] (partner 0.5 µM)
Summary of the method: as §1

BX 795 + Lapatinib = compound: O=C(NCCCNc1nc(Nc2cccc(NC(=O)N3CCCC3)c2)ncc1I)c1cccs1 [BX 795] + CS(=O)(=O)CCNCc1ccc(-c2ccc3ncnc(Nc4ccc(OCc5cccc(F)c5)c(Cl)c4)c3c2)o1 [Lapatinib] (partner 2 µM)
Summary of the method: as §1

BX 795 + Pictilisib = compound: O=C(NCCCNc1nc(Nc2cccc(NC(=O)N3CCCC3)c2)ncc1I)c1cccs1 [BX 795] + CS(=O)(=O)N1CCN(Cc2cc3nc(-c4cccc5[nH]ncc45)nc(N4CCOCC4)c3s2)CC1 [Pictilisib] (partner 1 µM)
Summary of the method: as §1

BX 795 + Crizotinib = compound: O=C(NCCCNc1nc(Nc2cccc(NC(=O)N3CCCC3)c2)ncc1I)c1cccs1 [BX 795] + C[C@@H](Oc1cc(-c2cnn(C3CCNCC3)c2)cnc1N)c1c(Cl)ccc(F)c1Cl [Crizotinib] (partner 1 µM)
Summary of the method: as §1

BX 795 + Linsitinib = compound: O=C(NCCCNc1nc(Nc2cccc(NC(=O)N3CCCC3)c2)ncc1I)c1cccs1 [BX 795] + C[C@]1(O)C[C@@H](c2nc(-c3ccc4ccc(-c5ccccc5)nc4c3)c3c(N)nccn32)C1 [Linsitinib] (partner 1 µM)
Summary of the method: as §1

BX 795 + Alpelisib = compound: O=C(NCCCNc1nc(Nc2cccc(NC(=O)N3CCCC3)c2)ncc1I)c1cccs1 [BX 795] + Cc1nc(NC(=O)N2CCC[C@H]2C(N)=O)sc1-c1ccnc(C(C)(C)C(F)(F)F)c1 [Alpelisib] (partner 2 µM)
Summary of the method: as §1

BX 795 + AZD7762 = compound: O=C(NCCCNc1nc(Nc2cccc(NC(=O)N3CCCC3)c2)ncc1I)c1cccs1 [BX 795] + NC(=O)Nc1cc(-c2cccc(F)c2)sc1C(=O)N[C@H]1CCCNC1 [AZD7762] (partner 0.2 µM)
Summary of the method: as §1

BX 795 + Olaparib = compound: O=C(NCCCNc1nc(Nc2cccc(NC(=O)N3CCCC3)c2)ncc1I)c1cccs1 [BX 795] + O=C(c1cc(Cc2n[nH]c(=O)c3ccccc23)ccc1F)N1CCN(C(=O)C2CC2)CC1 [Olaparib] (partner 8 µM)
Summary of the method: as §1

Cell Line: NCI-H1623
- relative viability (BX 795; 0.04 µM): 1.15
- relative viability (BX 795; 0.1265 µM): 0.972
- relative viability (BX 795; 0.4 µM): 0.989
- relative viability (BX 795; 1.265 µM): 0.892
- relative viability (BX 795 + Luminespib; first compound 0.04 µM): 0.598
- relative viability (BX 795 + Luminespib; first compound 0.1265 µM): 0.511
- relative viability (BX 795 + Luminespib; first compound 0.4 µM): 0.5
- relative viability (BX 795 + Luminespib; first compound 1.265 µM): 0.572
- relative viability (BX 795 + Foretinib; first compound 0.04 µM): 0.913
- relative viability (BX 795 + Foretinib; first compound 0.1265 µM): 0.952
- relative viability (BX 795 + Foretinib; first compound 0.4 µM): 0.88
- relative viability (BX 795 + Foretinib; first compound 1.265 µM): 0.892
- relative viability (BX 795 + OSI-027; first compound 0.04 µM): 0.458
- relative viability (BX 795 + OSI-027; first compound 0.1265 µM): 0.421
- relative viability (BX 795 + OSI-027; first compound 0.4 µM): 0.402
- relative viability (BX 795 + OSI-027; first compound 1.265 µM): 0.466
- relative viability (BX 795 + Tozasertib; first compound 0.04 µM): 0.429
- relative viability (BX 795 + Tozasertib; first compound 0.1265 µM): 0.386
- relative viability (BX 795 + Tozasertib; first compound 0.4 µM): 0.392
- relative viability (BX 795 + Tozasertib; first compound 1.265 µM): 0.461
- relative viability (BX 795 + Dasatinib; first compound 0.04 µM): 0.537
- relative viability (BX 795 + Dasatinib; first compound 0.1265 µM): 0.572
- relative viability (BX 795 + Dasatinib; first compound 0.4 µM): 0.533
- relative viability (BX 795 + Dasatinib; first compound 1.265 µM): 0.512
- relative viability (BX 795 + Phenformin; first compound 0.04 µM): 0.611
- relative viability (BX 795 + Phenformin; first compound 0.1265 µM): 0.568
- relative viability (BX 795 + Phenformin; first compound 0.4 µM): 0.491
- relative viability (BX 795 + Phenformin; first compound 1.265 µM): 0.516

Cell Line: NCI-H1703
- relative viability (BX 795; 0.04 µM): 0.469
- relative viability (BX 795; 0.1265 µM): 0.806
- relative viability (BX 795; 0.4 µM): 0.236
- relative viability (BX 795; 1.265 µM): 0.298
- relative viability (BX 795 + Bortezomib; first compound 0.04 µM): 0.272
- relative viability (BX 795 + Bortezomib; first compound 0.1265 µM): 0.223
- relative viability (BX 795 + Bortezomib; first compound 0.4 µM): 0.167
- relative viability (BX 795 + Bortezomib; first compound 1.265 µM): 0.159
- relative viability (BX 795 + Navitoclax; first compound 0.04 µM): 0.8
- relative viability (BX 795 + Navitoclax; first compound 0.1265 µM): 1
- relative viability (BX 795 + Navitoclax; first compound 0.4 µM): 0.22
- relative viability (BX 795 + Navitoclax; first compound 1.265 µM): 0.289
- relative viability (BX 795 + Foretinib; first compound 0.1265 µM): 0.296
- relative viability (BX 795 + Foretinib; first compound 0.4 µM): 0.274
- relative viability (BX 795 + Foretinib; first compound 1.265 µM): 0.27
- relative viability (BX 795 + Lapatinib; first compound 0.04 µM): 0.729
- relative viability (BX 795 + Lapatinib; first compound 0.1265 µM): 1.11
- relative viability (BX 795 + Lapatinib; first compound 0.4 µM): 0.284
- relative viability (BX 795 + Lapatinib; first compound 1.265 µM): 0.243
- relative viability (BX 795 + Pictilisib; first compound 0.1265 µM): 0.201
- relative viability (BX 795 + Pictilisib; first compound 0.4 µM): 0.222
- relative viability (BX 795 + Pictilisib; first compound 1.265 µM): 0.185
- relative viability (BX 795 + Crizotinib; first compound 0.04 µM): 0.317
- relative viability (BX 795 + Crizotinib; first compound 0.1265 µM): 0.453
- relative viability (BX 795 + Crizotinib; first compound 0.4 µM): 0.148
- relative viability (BX 795 + Crizotinib; first compound 1.265 µM): 0.179
- relative viability (BX 795 + Linsitinib; first compound 0.1265 µM): 0.622
- relative viability (BX 795 + Linsitinib; first compound 0.4 µM): 0.185
- relative viability (BX 795 + Linsitinib; first compound 1.265 µM): 0.224
- relative viability (BX 795 + Alpelisib; first compound 0.04 µM): 0.211
- relative viability (BX 795 + Alpelisib; first compound 0.1265 µM): 0.286
- relative viability (BX 795 + Alpelisib; first compound 0.4 µM): 0.194
- relative viability (BX 795 + Alpelisib; first compound 1.265 µM): 0.204
- relative viability (BX 795 + AZD7762; first compound 0.04 µM): 0.138
- relative viability (BX 795 + AZD7762; first compound 0.1265 µM): 0.115
- relative viability (BX 795 + AZD7762; first compound 0.4 µM): 0.148
- relative viability (BX 795 + AZD7762; first compound 1.265 µM): 0.156
- relative viability (BX 795 + Olaparib; first compound 0.1265 µM): 0.283
- relative viability (BX 795 + Olaparib; first compound 0.4 µM): 0.229
- relative viability (BX 795 + Olaparib; first compound 1.265 µM): 0.152
